These results are taken from patent US20260049078A1, “DIFLUORO- AND TRIFLUORO-ACETYL HYDRAZIDES AS SELECTIVE HDAC6 INHIBITORS” (ITALFARMACO S.P.A., priority 2022, published 2026).

One series concerns the target recombinant human HDAC6 (Homo sapiens (Human), UniProt Q9UBN7). Kind of series: Enzyme inhibitory activity assay on HDAC6. The class given is biochemical. As to conditions: 30 minutes preincubation at 25° C. The protocol: (§1) For each test compound, 100× concentrated DMSO solutions at 8 doses were prepared and then diluted in assay buffer (25 mM Tris-HCl, pH 8, 130 mM NaCl, 0.05% Tween-20, 10% Glycerol) to obtain 5× concentrated solutions in relation to the final concentrations (typical final concentration range—6.4-200000 nM or 0.18-50000 nM, final DMSO content—1%). Then 10 μL solution of each test compound concentration were placed on a 96-well plate in triplicate and 15 μL of 3.33× concentrated enzyme solution in the assay buffer containing 3.33× concentrated BSA (final BSA concentration 1 mg/mL) and, in case of HDAC6, 3.33× concentrated TCEP (final TCEP concentration—200 μM) were added to each well. After a period of preincubation at 25° C. (30 minutes for HDAC6 and 120 minutes for HDAC1), 25 μL of solution containing the substrate were added. As substrate, FLUOR DE LYS® deacetylase substrate (Enzo Life Sciences, cat: BML-KI104, FdL), FLUOR DE LYS®-Green substrate (Enzo Life Sciences, cat: BML-KI572, FdL_G) or Boc-Lys(Tfa)-AMC (Bachem, cat: 4060676.005, Tfal)—2× concentrated solution in assay buffer were used. Following a reaction period (30 minutes at 25° C.), 50 μL of the development solution consisting of concentrate FLUOR DE LYS® developer I (Enzo Life Sciences, ca: BML-KI105), diluted 200 times in buffer (50 mM Tris-HCl, pH 8, 137 mM NaCl, 2.7 mM KCl, 1 mM MgCl2) plus 2 μM TSA was added and, after 25 minutes at room temperature in the dark, using the Victor 1420 Multilabel Counter Perkin Elmer Wallac instrument, the fluorescence reading was carried out (excitation/emission: 485/535 nM—Fluor de Lys Green, 355/460 nM—Tfal, Fluor de Lys).
(§2) Enzymatic activity on recombinant human HDAC6 and HDAC1 was evaluated (Table 2) for each synthesized compound.

The target in another series is recombinant human HDAC1 (Homo sapiens (Human), UniProt Q13547). Kind of series: Enzyme inhibitory activity assay on HDAC1. The class given is biochemical. The settings on record: 120 minutes preincubation at 25° C. As to the method: as §1, §2
For series [1], the system named is human B cell precursor leukemia 697. Kind of series: In vitro α-tubulin acetylation in 697 cell line. As to conditions: Homo sapiens, B-cell, 16 h; read-out: TubAc 697 cells EC50. Format: cell-based. The protocol:
The in vitro α-tubulin acetylation was evaluated on human B cell precursor leukemia 697.
The 697 cells were maintained in RPMI Medium 1640 (Gibco, cat: 21875-034) supplemented with 10 mM HEPES (Gibco, cat: 15630-080), Pen-Strep (Penicillin 100 U/ml, Streptomycin 100 μg/ml, Gibco, cat: 15140-122) and 10% fetal bovine serum (Gibco, cat: 10270-106).
The cells were plated in 12-well plates (Costar, cat: 3512) at the density of 5.5×10^5 cells/ml.
Serial dilutions of test compounds in DMSO were prepared using 20 mM stock solutions to obtain 8 doses 200× concentrated in respect to final doses (2.7-100000 nM). Then the DMSO solutions were diluted 10× in culture medium to obtain 20× concentrated solutions which were used for cells treatment (125 μl of medium solutions were added to 2.375 ml of cells suspension). The final DMSO content was set as 0.5%. The plates were incubated at 37° C., 5% CO2 for 16 hours.
At the end of the incubation period, the cells were harvested and centrifuged for 5 minutes at 200×g and washed with 0.9% NaCl at 4° C. The resulting pellet was treated for 30 minutes at 4° C. with 100 μl Complete Lysis-M buffer containing protease inhibitors (Complete Lysis-M Roche+Complete Tablets, Mini Easypack, cat: 4719956001) and phosphatase inhibitor cocktails (PhosStop Easypack, Roche, cat: 4906837001) and then centrifuged 10 minutes at 18213×g. The protein concentration in each supernatant was determined using BCA Protein Assay Kit (Pierce, cat: 23227). The samples were diluted in PBS 1× to obtain 2 μg/ml concentration and coated in MaxiSorp 96-well plates (Nunc, cat: 442404). The plates were incubated overnight at room temperature.
Plates were washed twice with Wash Buffer (PBS 1×+0.005% tween 20) and saturated for 1 hour at room temperature with 300 μL of 1×PBS containing 10% FBS. After washing twice with Wash Buffer, the plates were incubated for 2 hours at room temperature in the presence of 100 μl/well either anti-acetylated-α-tubulin antibody (Monoclonal Anti-Tubulin, Acetylated antibody produced in mouse, Sigma-Aldrich, cat: T6793) or total anti-α-tubulin antibody (Monoclonal Anti-α-Tubulin produced in mouse, Sigma-Aldrich, cat: T6074) diluted 1:1000 in 1×PBS containing 10% FBS. Following 5 washing cycles with Wash Buffer the secondary antibody conjugated with the enzyme HRP (Goat anti-Mouse IgG, IgM, IgA (H+L), stock concentration 0.5 mg/ml, Thermo Fisher Scientific, cat: A10668), diluted 1:1000 in 1×PBS+10% FBS was added at the volume of 100 μl/well. After two hours of incubation at room temperature the plates were washed 4 times with Wash Buffer, then 100 μl/well of TMB substrate (TMB substrate kit, Thermo Fisher Scientific, cat: 34021) was added for 10 minutes at room temperature in the dark. The reaction was stopped by adding 50 μl of 2M H2SO4. The plates were read in BioTek Synergy H1 multimode microplate reader at a wavelength of 450 nm.
The measured absorbance was corrected by subtracting the mean of blank values (samples without the primary antibody). The absorbance ratios of acetyl to total tubulin assays were calculated and normalized to the reference compound (positive control) 4 parameter logistic curve, where 0% is the fitted bottom and 100% is the fitted top of the curve. The results are expressed as relative EC50.

In another series the test system is HDAC6. Kind of series: Kinetic of prodrug disappearing when incubated with HDAC6 (LC-HRMS). The class given is biochemical. The settings on record: HDAC6 1 μM, 5 μM compound, 25° C.; for half-life at 5 µM: HDAC6 enzyme in assay buffer, read-out: T1/2 of prodrug disappearing. As to the method: The LC-HRMS analysis was carried out using a Vanquish Flex UHPLC (Thermo Fisher Scientific) and a high-resolution mass spectrometer Orbitrap QExactive Focus (Thermo Fisher Scientific), equipped with a Heated Electrospray Ionization, operated in positive mode. A Full Scan analysis was set in the m/z range 50-500 amu. A XSelect HSS T3 50×2.1 mm, 2.5 μm chromatographic column (Waters) was used. Mobile phase A consisted of 0.1% formic acid in water and mobile phase B in 0.1% formic acid in acetonitrile. The flow rate was set to 0.5 mL/min, with a gradient program from 3 to 20% B in 3 minutes.

Chain of recombinant human HDAC1 (Q13547 whole entry): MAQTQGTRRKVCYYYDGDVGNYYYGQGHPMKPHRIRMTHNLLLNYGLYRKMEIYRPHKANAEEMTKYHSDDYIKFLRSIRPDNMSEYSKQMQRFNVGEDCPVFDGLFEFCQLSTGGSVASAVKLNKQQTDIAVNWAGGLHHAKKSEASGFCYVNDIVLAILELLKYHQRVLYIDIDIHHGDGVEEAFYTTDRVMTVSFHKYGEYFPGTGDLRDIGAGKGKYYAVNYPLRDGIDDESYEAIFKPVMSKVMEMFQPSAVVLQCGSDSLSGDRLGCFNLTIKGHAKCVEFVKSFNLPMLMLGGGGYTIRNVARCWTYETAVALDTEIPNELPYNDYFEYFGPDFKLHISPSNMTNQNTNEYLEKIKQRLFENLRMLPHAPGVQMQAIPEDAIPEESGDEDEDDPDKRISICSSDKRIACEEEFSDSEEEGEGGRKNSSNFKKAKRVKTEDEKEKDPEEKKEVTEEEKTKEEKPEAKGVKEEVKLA
Chain of recombinant human HDAC6 (Q9UBN7 whole entry): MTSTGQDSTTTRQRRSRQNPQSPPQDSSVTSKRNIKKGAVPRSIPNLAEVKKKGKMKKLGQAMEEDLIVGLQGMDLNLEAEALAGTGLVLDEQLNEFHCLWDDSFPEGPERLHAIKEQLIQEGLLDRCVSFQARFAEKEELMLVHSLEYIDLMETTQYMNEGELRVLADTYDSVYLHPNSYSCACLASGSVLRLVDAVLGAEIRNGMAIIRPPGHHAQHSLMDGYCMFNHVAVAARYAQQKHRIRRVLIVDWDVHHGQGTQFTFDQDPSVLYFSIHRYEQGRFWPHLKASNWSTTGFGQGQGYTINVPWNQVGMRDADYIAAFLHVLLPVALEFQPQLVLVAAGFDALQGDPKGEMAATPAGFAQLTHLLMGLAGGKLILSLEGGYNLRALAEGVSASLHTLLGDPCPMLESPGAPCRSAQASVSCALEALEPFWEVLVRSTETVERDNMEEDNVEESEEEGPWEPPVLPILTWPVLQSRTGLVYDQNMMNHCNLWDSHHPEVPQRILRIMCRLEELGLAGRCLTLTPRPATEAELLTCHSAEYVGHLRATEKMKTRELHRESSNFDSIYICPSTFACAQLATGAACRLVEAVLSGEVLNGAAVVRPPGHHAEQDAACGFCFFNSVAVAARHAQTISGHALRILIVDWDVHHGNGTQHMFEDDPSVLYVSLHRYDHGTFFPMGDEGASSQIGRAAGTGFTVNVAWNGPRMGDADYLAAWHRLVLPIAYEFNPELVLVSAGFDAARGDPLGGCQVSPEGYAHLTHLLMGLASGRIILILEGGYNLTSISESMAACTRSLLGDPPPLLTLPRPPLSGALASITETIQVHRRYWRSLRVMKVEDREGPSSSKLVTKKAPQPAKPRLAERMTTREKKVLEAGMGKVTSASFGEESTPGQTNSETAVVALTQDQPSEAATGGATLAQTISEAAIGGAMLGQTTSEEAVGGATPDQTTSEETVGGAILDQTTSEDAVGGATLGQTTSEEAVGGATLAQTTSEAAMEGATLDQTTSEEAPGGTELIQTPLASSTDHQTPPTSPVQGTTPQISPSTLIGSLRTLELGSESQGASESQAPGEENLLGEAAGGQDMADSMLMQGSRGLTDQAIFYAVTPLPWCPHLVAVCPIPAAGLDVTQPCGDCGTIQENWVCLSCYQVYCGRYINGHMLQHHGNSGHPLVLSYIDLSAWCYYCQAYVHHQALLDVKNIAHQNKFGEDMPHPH

As to `Cc1ccc(-c2cn(Cc3ccc(-c4nnc(C(F)F)o4)cn3)nn2)cc1` [Compound 8-A], the values for the IC50 on recombinant human HDAC6 and on recombinant human HDAC1 were 65 nM and over 100000 nM, respectively. The EC50 in series [1] is 419 nM.
In the same order, the values of `Cc1cccc(-c2cn(Cc3ccc(-c4nnc(C(F)F)o4)cn3)nn2)c1` [Compound 9-A] are 40 nM, over 100000 nM and 385 nM.
In the same order, the values of `CC(=O)Nc1cccc(-c2cn(Cc3ccc(-c4nnc(C(F)F)o4)cc3F)nn2)c1` [Compound 12-A] are 57 nM, over 100000 nM and 346 nM.
Consider `Fc1cc(-c2nnc(C(F)F)o2)cnc1Cn1cc(-c2ccccn2)nn1` [Compound 15-A], for which the IC50 on recombinant human HDAC6 was 100 nM; at recombinant human HDAC1, over 100000 nM.
Consider `FC(F)c1nnc(-c2ccc(Cn3nnc(-c4ccccc4)n3)nc2)o1` [Compound 16-A], for which the figures for the IC50 on recombinant human HDAC6 and on recombinant human HDAC1 were 40 nM and over 100000 nM, respectively. The concentration for a half-maximal effect (EC50) in series [1] was 1090 nM.
On the same counts, the results for `FC(F)c1nnc(-c2ccc(Cn3nnc(-c4cccs4)n3)nc2)o1` [Compound 17-A] are 41 nM, over 100000 nM and 648 nM.
On the same counts, the results for `Fc1cccc(-c2cn(Cc3ccc(-c4nnc(C(F)F)o4)cn3)nn2)c1` [Compound 18-A] are 56 nM, over 100000 nM and 582 nM.
In the same order, the values of `FC(F)c1nnc(-c2ccc(Cn3cc(-c4cccs4)nn3)nc2)o1` [Compound 19-A] are 31 nM, over 100000 nM and 579 nM.
On to `CC(c1ccc(-c2nnc(C(F)F)o2)cc1F)n1cc(-c2ccc3nc(N)sc3c2)nn1` (stereo not shown) [Compound 30-A, 6-(1-(1-(4-(5-(difluoromethyl)-1,3,4-oxadiazol-2-yl)-2-fluorophenyl)ethyl)-1H-1,2,3-triazol-4-yl)benzo[d]thiazol-2-amine], for which the EC50 in series [1] is 1390 nM.
As to `Nc1nc2ccc(-c3cn(Cc4ccc(-c5nnc(C(F)F)o5)c(Cl)c4)nn3)cc2s1` [Compound 31-A], in the series on HDAC6, the half-life at 5 µM was 129 min.
On the same count and under the same terms, next, `Nc1ccc(-c2cn(Cc3c(F)cc(-c4nnc(C(F)(F)F)o4)cc3F)nn2)cn1` [Compound 42-A]: 40.5 min; `Nc1ccc(-c2cn(Cc3ccc(-c4nnc(C(F)(F)F)o4)cc3F)nn2)cn1` [Compound 43-A]: 23.1 min; `Nc1ccc(-c2cn(Cc3ccc(-c4nnc(C(F)(F)F)o4)c(F)c3)nn2)cn1` [Compound 44-A]: 11.3 min.
Regarding `Nc1ccc(-c2cn(Cc3c(F)cc(-c4nnc(C(F)F)o4)cc3F)nn2)cn1` [Compound 46-A], the “percentage of compound concentration (prodrug remaining)” value (shortened to “percentage … (prodrug remaining)”) in the series with HDAC6 (time 0 min) came to 100.00%; in the series on HDAC6 (time 30 min), 42.4%; with HDAC6 (time 60 min) it was 17.4%; with HDAC6 (time 120 min), 2.7%; in the series on HDAC6 (time 240 min) it was 0.0%; in the series on HDAC6 (time 360 min) it was 0.0%. Also, the “percentage … (prodrug remaining)” value in the series with HDAC6 (time 480 min) was 0.0%. Besides, in the series on HDAC6, the half-life at 5 µM is 22.9 min. The IC50 at recombinant human HDAC1 was over 100000 nM. In series [1], the EC50 was found to be 788 nM.
On to `Nc1ccc(-c2cn(Cc3ccc(-c4nnc(C(F)F)o4)cc3F)nn2)cn1` [Compound 47-A], for which the “percentage … (prodrug remaining)” value in the series with HDAC6 (time 0 min) was 100.00%; with HDAC6 (time 30 min), 53.6%; in the series with HDAC6 (time 60 min), 29.7%; in the series with HDAC6 (time 120 min) it was 7.4%; with HDAC6 (time 240 min), 0.4%; with HDAC6 (time 360 min), 0.0%. In the series with HDAC6 (time 480 min), the “percentage … (prodrug remaining)” value was determined as 0.0%. For the same compound, the half-life at 5 µM in the series on HDAC6 came to 29.3 min. The IC50 at recombinant human HDAC1 was over 100000 nM. The EC50 in series [1] is 871 nM.
With `Nc1ccc(-c2cn(Cc3ccc(-c4nnc(C(F)F)o4)s3)nn2)cn1` [Compound 49-A], the 50% effective concentration (EC50) in series [1] is 29 nM.

What is called IC50 is the point on the concentration scale where inhibition reaches its midpoint. As a reminder, the EC50 is the concentration needed to bring the measured effect to its halfway point.
